# Test results reported in paper PMC4348036, “Structural and Functional Investigation of Flavin Binding Center of the NqrC Subunit of Sodium-Translocating NADH:Quinone Oxidoreductase from Vibrio harveyi” (PLoS ONE, 2015).
# Molecular target: T1, holoNqrC' (NqrC subunit of Na+-translocating NADH:quinone oxidoreductase, soluble flavin-binding domain) (Vibrio harveyi, UniProt K5TWQ4)
# T1 construct: soluble truncated NqrC without N-terminal transmembrane helix, residues 33-261, C-terminal 6xHis tag; E. coli, co-expressed with flavin transferase ApbE (plasmids pMshC3 + pdhis3); model covers residues 36-261
# Assay: X-ray crystallography, […] Å
# Details: covalent; phosphoester bond to Thr229, attached in vivo by flavin transferase ApbE; pH 6.8
# T1 sequence (K5TWQ4 33-261): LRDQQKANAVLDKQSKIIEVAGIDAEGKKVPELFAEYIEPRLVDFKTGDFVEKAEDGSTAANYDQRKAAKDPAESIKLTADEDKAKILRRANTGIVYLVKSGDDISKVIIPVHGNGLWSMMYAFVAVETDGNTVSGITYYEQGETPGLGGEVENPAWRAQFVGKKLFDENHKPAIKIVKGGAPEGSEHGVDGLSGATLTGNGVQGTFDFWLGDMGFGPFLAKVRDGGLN
structure (smiles),measurement,value
Cc1cc2nc3c(=O)[nH]c(=O)nc-3n(C[C@H](O)[C@H](O)[C@H](O)COP(=O)(O)O)c2cc1C [FMN],"X-ray crystallography, 1.56 Å",The electron density of Thr229 side chain unambiguously demonstrates its flavinylation.
